Assay results from patent publication US20250302974A1, “LECTIN-DRUG CONJUGATES” (UNICHEM LABORATORIES LIMITED, priority 2021, published 2025).
Numbered stars: 1 amine (or outer) side, 2 acyl side, 3 side chain; on linkers, the order of the positions; unused ones are H or OH. Square brackets hold non-standard residues; d marks the D form. Peptide text beside a SMILES is read from it. * marks the point of attachment. Dolaproine = CO[C@@H]([C@@H]1CCCN1)[C@@H](C)C(=O)O; Hexanoyl(6-maleimido) = O=C1C=CC(=O)N1CCCCCC(=O)*; Dil = CC[C@H](C)[C@H](NC)[C@@H](CC(=O)O)OC; PABC = O=C(OCc1ccc(N[*:1])cc1)[*:2]; X1 = C[C@@H](N*)[C@@H](O)c1ccccc1; Cit = NC(=O)NCCC[C@H](N)C(=O)O; NMeV = CN[C@H](C(=O)O)C(C)C

Columns and labels:
PBMC Normal = assay: Cytotoxic effect by MTT assay, 48 h; settings: for Percent cytotoxicity wrt control: PBMC, 48 h
Protocol: (§1) Cells were treated with Test Items at various concentrations (0.0001 μM-10 μM) for 48 h. The cells corresponding to Positive Control group were treated with Doxorubicin at a concentration ranging from 0.1 μM-100 μM. The Untreated cells were used as Control. After 48 h of incubation, the effect of Test Items on cytotoxicity of cells was determined by MTT assay, the plates were taken out and 20 μl of 5 mg/m1 of MTT 3-(4,5-dimethythiazol-2-yl)-2,5-diphenyl tetrazolium bromide solution was added to all the wells. Cells were incubated for 3 h at 37° C. The supernatant was aspirated. 150 μl of DMSO was added to each well to dissolve formazan crystals. The absorbance of each well was then read at 540 nm using Synergy HT micro plate reader.
(§2) The % Cytotoxicity was calculated using the formula:
(§3) Where, X=Absorbance of cells treated with Test Item; R=Absorbance of Control cells (Untreated cells maintained in growth medium only).

AGS Stomach = assay: Cytotoxic effect by MTT assay, 48 h; settings: AGS, 48 h
Protocol: as §1, §2, §3
(§4) Selectivity Index was calculated using the formula:
(§5) SI=IC50 in Normal cell/IC50 in cancer cell.
(§6) Activity scores of the Selective Index values were categorized as: • Not selective (SI value ≤1) • Moderately selective (1<SI value <5) • Selective (SI value ≥5)

MDA-MB-231 Breast = assay: Cytotoxic effect by MTT assay, 48 h; settings: for Percent cytotoxicity wrt control: 48 h
Protocol: as §1, §2, §3, §4, §5, §6

T24 Bladder = assay: Cytotoxic effect by MTT assay, 48 h; settings: for Percent cytotoxicity wrt control: 48 h
Protocol: as §1, §2, §3, §4, §5, §6

HT29 Colon = assay: Cytotoxic effect by MTT assay, 48 h; settings: for Percent cytotoxicity wrt control: 48 h
Protocol: as §1, §2, §3, §4, §5, §6

KB Cervix = assay: Cytotoxic effect by MTT assay, 48 h; settings: for Percent cytotoxicity wrt control: KB, 48 h
Protocol: as §1, §2, §3, §4, §5, §6

MG-63 Bone = assay: Cytotoxic effect by MTT assay, 48 h; settings: for Percent cytotoxicity wrt control: 48 h
Protocol: as §1, §2, §3, §4, §5, §6

PANC-1 Pancreatic = assay: Cytotoxic effect by MTT assay, 48 h; settings: for Percent cytotoxicity wrt control: 48 h
Protocol: as §1, §2, §3, §4, §5, §6

U251 MG Brain = assay: Cytotoxic effect by MTT assay, 48 h; settings: for Percent cytotoxicity wrt control: U251 MG, 48 h
Protocol: as §1, §2, §3, §4, §5, §6

PA-1 Ovary = assay: Cytotoxic effect by MTT assay, 48 h; settings: for Percent cytotoxicity wrt control: 48 h
Protocol: as §1, §2, §3, §4, §5, §6

[1] = system: ovarian cancer cell line (PA-1); assay: Cytotoxicity assay, cell titer glow luminescence, 72 h; assay type: cell-based; settings: 72 h
Protocol: (§7) T-24 Cell line were cultured in McCoy's 5a Medium Modified supplemented with 10% FBS and the PA-1 Cell line was cultured in EMEM Media supplemented with 10% FBS. The assay was performed by plating 5,000 cells/well and incubated at 37° C. overnight. […] Each concentration was added in triplicate and media-only wells used as a control. After incubation for 72 h cell titer glow (Promega) reagent (50 μL) was added to each well and the plates shaken for 5 mins and the luminescence was recorded. Percent viability was determined by dividing luminescence of the treated well by the non-treated well and multiplying by 100. Data was analysed using non-linear regression with a logarithmic scale.
(§8) 5,000 cells/well were plated and incubated at 37° C. overnight. Conjugates/vehicle control dilutions were made in respective media and added to cells. Volume added: 50 uL to each well. Starting treatment concentration was 1 uM for Conjugate of formula 16 and 18, and control SEQ ID NO: 5 alone and 10% for vehicle control (1×PBS with 20% DMA) and then diluted 10-fold down for a total of 11 treatment dilutions. Each concentration was analysed in triplicates. Media-only wells was used as a control to calculate percent viability. Cell titer glow reagent (volume: 50 uL) was added to each well, the plate was shaken for 5 mins and the luminescence was recorded. Drug Treatment Time: 72 hours. Percent viability was calculated by dividing the luminescence signal obtained for each treated well by the untreated well (media-only control) and multiplying by 100.

[2] = system: human urinary bladder cancer cell line (T-24); assay: as above; assay type: cell-based; settings: 72 h
Protocol: as §7, §8

A549 Lungs = assay: Cytotoxic effect by MTT assay, 48 h; settings: for Percent cytotoxicity wrt control: 48 h
Protocol: as §1, §2, §3, §4, §5, §6

PA-1 cells = assay: Cytotoxicity (cell titer glo, 72 h) ovarian cancer cell line PA-1; assay type: cell-based; settings: Homo sapiens, PA-1 cell line
Protocol: as §7
5,000 cells/well were plated and incubated at 37° C. overnight. Conjugates/vehicle control dilutions were made in respective media and added to cells. Volume added: 50 uL to each well. […] Each concentration was analysed in triplicates. […] Cell titer glow reagent (volume: 50 uL) was added to each well, the plate was shaken for 5 mins and the luminescence was recorded. […] Percent viability was calculated by dividing the luminescence signal obtained for each treated well by the untreated well (media-only control) and multiplying by 100.

COc1cc2c(cc1OCCCCCOc1cc3c(cc1OC)C(=O)N1C=C(C)C[C@H]1[C@H](O)N3C(=O)OCc1ccc(NC(=O)[C@H](C)NC(=O)[C@@H](NC(=O)CCOCCOCCOCCOCCOCCOCCOCCOCCNC(=O)CCN3C(=O)C=CC3=O)C(C)C)cc1)N=C[C@@H]1CC(C)=CN1C2=O [Tesirine]
Percent cytotoxicity wrt control (PBMC Normal; 0.0001 μM): 16.9% | Percent cytotoxicity wrt control (PBMC Normal; 0.01 μM): 40.3% | Percent cytotoxicity wrt control (PBMC Normal; 0.1 μM): 38.7% | Percent cytotoxicity wrt control (PBMC Normal; 1 μM): 38.2% | IC50 (PBMC Normal; read-out: IC50 Values, PBMC Normal, after 48 h of treatment): 5090 nM | Percent cytotoxicity wrt control (AGS Stomach; 0.0001 μM): 66.4% | Percent cytotoxicity wrt control (AGS Stomach; 0.01 μM): 77.8% | Percent cytotoxicity wrt control (AGS Stomach; 0.1 μM): 81.3% | Percent cytotoxicity wrt control (AGS Stomach; 1 μM): 81.3% | Percent cytotoxicity wrt control (AGS Stomach; 10 μM): 81.6% | Percent cytotoxicity wrt control (MDA-MB-231 Breast; MDA-MB-231, 0.001 μM): 41.9% | Percent cytotoxicity wrt control (MDA-MB-231 Breast; MDA-MB-231, 1 μM): 69.2% | IC50 (MDA-MB-231 Breast; read-out: IC50 Values, MDA-MB-231 Breast, after 48 h of treatment): 1.4 nM | Percent cytotoxicity wrt control (T24 Bladder; T24, 0.0001 μM): 57.5% | Percent cytotoxicity wrt control (T24 Bladder; T24, 0.001 μM): 60.6% | Percent cytotoxicity wrt control (T24 Bladder; T24, 0.01 μM): 57.5% | Percent cytotoxicity wrt control (T24 Bladder; T24, 0.1 μM): 61.4% | Percent cytotoxicity wrt control (T24 Bladder; T24, 1 μM): 62.7% | Percent cytotoxicity wrt control (T24 Bladder; T24, 10 μM): 80.4% | IC50 (T24 Bladder; read-out: IC50 Values, T24 Bladder, after 48 h of treatment): 2 nM | Percent cytotoxicity wrt control (HT29 Colon; HT29, 0.0001 μM): 37.4% | Percent cytotoxicity wrt control (HT29 Colon; HT29, 0.001 μM): 44.5% | Percent cytotoxicity wrt control (HT29 Colon; HT29, 0.01 μM): 47.7% | Percent cytotoxicity wrt control (HT29 Colon; HT29, 0.1 μM): 48.3% | Percent cytotoxicity wrt control (HT29 Colon; HT29, 1 μM): 49% | IC50 (HT29 Colon; read-out: IC50 Values, HT29 Colon, after 48 h of treatment): 20 nM | Percent cytotoxicity wrt control (KB Cervix; 0.0001 μM): −9.5% | Percent cytotoxicity wrt control (KB Cervix; 0.001 μM): 1% | Percent cytotoxicity wrt control (KB Cervix; 0.01 μM): 76.2% | Percent cytotoxicity wrt control (KB Cervix; 0.1 μM): 93.8% | Percent cytotoxicity wrt control (KB Cervix; 1 μM): 89.1% | Percent cytotoxicity wrt control (KB Cervix; 10 μM): 92.7% | IC50 (KB Cervix; read-out: IC50 Values, KB Cervix, after 48 h of treatment): 6 nM | Percent cytotoxicity wrt control (MG-63 Bone; MG-63, 0.0001 μM): 46.6% | Percent cytotoxicity wrt control (MG-63 Bone; MG-63, 0.001 μM): 69.4% | Percent cytotoxicity wrt control (MG-63 Bone; MG-63, 0.01 μM): 81.2% | Percent cytotoxicity wrt control (MG-63 Bone; MG-63, 1 μM): 82.3% | IC50 (MG-63 Bone; read-out: IC50 Values, MG-63 Bone, after 48 h of treatment): 0.03 nM | Percent cytotoxicity wrt control (PANC-1 Pancreatic; PANC-1, 0.0001 μM): 46.6% | Percent cytotoxicity wrt control (PANC-1 Pancreatic; PANC-1, 0.001 μM): 51.1% | Percent cytotoxicity wrt control (PANC-1 Pancreatic; PANC-1, 0.01 μM): 58.3% | Percent cytotoxicity wrt control (PANC-1 Pancreatic; PANC-1, 0.1 μM): 55% | Percent cytotoxicity wrt control (PANC-1 Pancreatic; PANC-1, 10 μM): 71% | IC50 (PANC-1 Pancreatic; read-out: IC50 Values, PANC-1 Pancreatic, after 48 h of treatment): 0.7 nM | Percent cytotoxicity wrt control (U251 MG Brain; 0.001 μM): 26.5% | Percent cytotoxicity wrt control (U251 MG Brain; 0.01 μM): 23.1% | Percent cytotoxicity wrt control (U251 MG Brain; 0.1 μM): 19.2% | Percent cytotoxicity wrt control (U251 MG Brain; 1 μM): 27.2% | Percent cytotoxicity wrt control (U251 MG Brain; 10 μM): 60.5% | IC50 (U251 MG Brain; read-out: IC50 Values, U251 MG Brain, after 48 h of treatment): 6820 nM | Percent cytotoxicity wrt control (PA-1 Ovary; PA-1, 0.001 μM): 66.8% | Percent cytotoxicity wrt control (PA-1 Ovary; PA-1, 0.01 μM): 79.1% | Percent cytotoxicity wrt control (PA-1 Ovary; PA-1, 1 μM): 78.1% | Percent cytotoxicity wrt control (PA-1 Ovary; PA-1, 10 μM): 80.5% | IC50 (PA-1 Ovary; read-out: IC50 Values, PA-1 Ovary, after 48 h of treatment): 0.00599 nM | IC50 [1]: 13.4 nM | IC50 [2]: 145 nM | Percent cytotoxicity wrt control (A549 Lungs; A549, 0.0001 μM): 13.7% | Percent cytotoxicity wrt control (A549 Lungs; A549, 0.1 μM): 45.2% | Percent cytotoxicity wrt control (A549 Lungs; A549, 1 μM): 53.3% | Percent cytotoxicity wrt control (A549 Lungs; A549, 10 μM): 66.7% | IC50 (A549 Lungs; read-out: IC50 Values, A549 Lungs, after 48 h of treatment): 390 nM

CC[C@H](C)[C@@H]([C@@H](CC(=O)N1CCC[C@H]1[C@H](OC)[C@@H](C)C(=O)N[C@H](C)[C@@H](O)c1ccccc1)OC)N(C)C(=O)[C@@H](NC(=O)[C@H](C(C)C)N(C)C(=O)OCc1ccc(NC(=O)[C@H](CCCNC(N)=O)NC(=O)[C@@H](NC(=O)CCCCCN2C(=O)C=CC2=O)C(C)C)cc1)C(C)C [mc-vc-PAB-MMAE] ({Hexanoyl(6-maleimido)}-V[Cit][PABC][NMeV]V[Dil][Dolaproine]-X1)
IC50 [1]: 647 nM | IC50 (PA-1 cells): 647 nM
